Experimental data: ChEMBL document CHEMBL1201862, “PubChem BioAssay data set” (2004)
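1) Cells in 96-well plates. 2) Compound, 48 h, 5 concentrations. 3) Linear interpolation between surrounding doses. 4) Unreached endpoint = highest concentration. GI50: concentration for 50% inhibition of growth.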 The source made the active and inactive calls. Cut-off read from the data, not from the text of the source: active = GI50 up to about 1.1 µM and inactive = higher.

How the values were obtained:
Experiment in all cases: DTP human tumour cell line panel, 48 h
786-0 = tested on: 786-0
OVCAR-8 = tested on: OVCAR-8
SF-539 = tested on: SF-539
SR = tested on: SR
K562 = tested on: K562
KM12 = tested on: KM12
UO-31 = tested on: UO-31
U-251 = tested on: U-251
HL-60 = tested on: HL-60
A549 = tested on: A549
CAKI-1 = tested on: CAKI-1
HCC 2998 = tested on: HCC 2998
SNB-19 = tested on: SNB-19
HCT-15 = tested on: HCT-15
OVCAR-5 = tested on: OVCAR-5
Hs-578T = tested on: Hs-578T
NCI-H226 = tested on: NCI-H226
UACC-257 = tested on: UACC-257
BT-549 = tested on: BT-549
HT-29 = tested on: HT-29
LOX IMVI = tested on: LOX IMVI
CCRF-CEM = tested on: CCRF-CEM
RPMI-8226 = tested on: RPMI-8226
SN12C = tested on: SN12C
Malme-3M = tested on: Malme-3M
MOLT-4 = tested on: MOLT-4
SF-268 = tested on: SF-268
SK-OV-3 = tested on: SK-OV-3
NCI-H460 = tested on: NCI-H460
DU-145 = tested on: DU-145
T47D = tested on: T47D
A498 = tested on: A498
UACC-62 = tested on: UACC-62
MDA-MB-435 = tested on: MDA-MB-435
SK-MEL-2 = tested on: SK-MEL-2
HOP-92 = tested on: HOP-92
EKVX = tested on: EKVX
M14 = tested on: M14
SF-295 = tested on: SF-295
NCI-H522 = tested on: NCI-H522
MDA-MB-231 = tested on: MDA-MB-231
IGROV-1 = tested on: IGROV-1
OVCAR-3 = tested on: OVCAR-3
ACHN = tested on: ACHN
COLO 205 = tested on: COLO 205
NCI/ADR-RES = tested on: NCI/ADR-RES
SK-MEL-5 = tested on: SK-MEL-5
HCT-116 = tested on: HCT-116
NCI-H23 = tested on: NCI-H23
TK-10 = tested on: TK-10
HOP-62 = tested on: HOP-62
SW-620 = tested on: SW-620
SK-MEL-28 = tested on: SK-MEL-28
MDA-N = tested on: MDA-N
MCF7 = tested on: MCF7
PC-3 = tested on: PC-3
RXF 393 = tested on: RXF 393
OVCAR-4 = tested on: OVCAR-4
SNB-75 = tested on: SNB-75

Measured: GI50

Cc1sc2nc(-c3ccc([N+](=O)[O-])cc3)c(/C=N/N=C(N)N)n2c1C
inactive: SF-539 1.72 µM | UO-31 1.62 µM | A549 1.45 µM | CAKI-1 2.07 µM | OVCAR-5 1.36 µM | Hs-578T 1.61 µM | NCI-H226 1.84 µM | UACC-257 1.46 µM | BT-549 1.41 µM | SN12C 1.33 µM | Malme-3M 1.17 µM | SF-268 1.65 µM | SK-OV-3 1.7 µM | NCI-H460 1.75 µM | DU-145 1.27 µM | A498 1.87 µM | UACC-62 1.73 µM | HOP-92 1.33 µM | EKVX 1.17 µM | SF-295 1.16 µM | NCI-H522 1.32 µM | IGROV-1 1.4 µM | OVCAR-3 1.75 µM | ACHN 1.33 µM | NCI/ADR-RES 2.76 µM | SK-MEL-5 1.38 µM | NCI-H23 1.43 µM | TK-10 1.5 µM | PC-3 1.28 µM
1.35 µM: HCT-15
active: 786-0 0.221 µM | OVCAR-8 0.53 µM | SR 0.217 µM | K562 0.202 µM | KM12 0.301 µM | U-251 0.179 µM | HL-60 1.1 µM | HCC 2998 0.175 µM | SNB-19 0.721 µM | HT-29 0.432 µM | LOX IMVI 0.398 µM | CCRF-CEM 0.206 µM | RPMI-8226 0.468 µM | MOLT-4 0.83 µM | T47D 0.664 µM | MDA-MB-435 0.979 µM | SK-MEL-2 0.457 µM | M14 0.67 µM | MDA-MB-231 0.28 µM | COLO 205 0.251 µM | HCT-116 0.173 µM | HOP-62 0.689 µM | SW-620 0.195 µM | SK-MEL-28 0.361 µM | MDA-N 0.373 µM | MCF7 0.555 µM | RXF 393 0.942 µM

CC/C(=N/O)c1ccc(Br)s1
> 100 µM: HCT-15
inactive: 786-0 > 100 µM | OVCAR-8 > 100 µM | SF-539 27.1 µM | SR 40.3 µM | K562 > 100 µM | KM12 > 100 µM | UO-31 58.6 µM | OVCAR-4 > 100 µM | U-251 > 100 µM | HL-60 28.6 µM | A549 > 100 µM | CAKI-1 > 100 µM | HCC 2998 > 100 µM | SNB-19 66.1 µM | OVCAR-5 > 100 µM | Hs-578T 95.1 µM | NCI-H226 > 100 µM | UACC-257 > 100 µM | BT-549 > 100 µM | HT-29 > 100 µM | LOX IMVI 51.9 µM | CCRF-CEM 41.1 µM | SN12C > 100 µM | Malme-3M > 100 µM | MOLT-4 44.7 µM | SF-268 > 100 µM | SK-OV-3 > 100 µM | NCI-H460 > 100 µM | DU-145 > 100 µM | T47D 70 µM | A498 > 100 µM | UACC-62 84.1 µM | MDA-MB-435 > 100 µM | SK-MEL-2 > 100 µM | HOP-92 40.3 µM | SNB-75 67.8 µM | EKVX 5.61 µM | M14 > 100 µM | SF-295 > 100 µM | NCI-H522 > 100 µM | MDA-MB-231 > 100 µM | IGROV-1 55.6 µM | OVCAR-3 > 100 µM | ACHN 92 µM | COLO 205 > 100 µM | NCI/ADR-RES > 100 µM | SK-MEL-5 > 100 µM | HCT-116 > 100 µM | NCI-H23 > 100 µM | TK-10 > 100 µM | HOP-62 > 100 µM | SW-620 > 100 µM | SK-MEL-28 > 100 µM | MDA-N > 100 µM | MCF7 > 100 µM | PC-3 > 100 µM | RXF 393 70.3 µM

O=C1c2ccccc2C(=O)N1CCCCCCNOCCCN1C(=O)c2ccccc2C1=O
inactive: 786-0 99.1 µM | OVCAR-8 38.9 µM | SR 33.4 µM | K562 29.7 µM | KM12 27.1 µM | UO-31 34 µM | OVCAR-4 22.3 µM | U-251 63 µM | A549 32.4 µM | CAKI-1 50.4 µM | HCC 2998 > 100 µM | SNB-19 78.3 µM | OVCAR-5 > 100 µM | Hs-578T > 100 µM | NCI-H226 > 100 µM | UACC-257 31.1 µM | BT-549 30.3 µM | HT-29 36.6 µM | LOX IMVI 36.2 µM | CCRF-CEM 25.6 µM | RPMI-8226 14.4 µM | SN12C > 100 µM | Malme-3M 41.3 µM | MOLT-4 19.3 µM | SF-268 > 100 µM | SK-OV-3 56.9 µM | NCI-H460 44.2 µM | DU-145 51.8 µM | T47D 16.8 µM | A498 21.6 µM | UACC-62 19.5 µM | MDA-MB-435 25.2 µM | SK-MEL-2 16.3 µM | HOP-92 34 µM | SNB-75 25.1 µM | EKVX 25.6 µM | M14 21.3 µM | SF-295 29.4 µM | NCI-H522 26.5 µM | MDA-MB-231 57.5 µM | IGROV-1 90.6 µM | OVCAR-3 23.7 µM | ACHN 36.7 µM | COLO 205 38.7 µM | NCI/ADR-RES 26.4 µM | SK-MEL-5 15.4 µM | HCT-116 48.8 µM | NCI-H23 26.1 µM | TK-10 59 µM | HOP-62 45.1 µM | SW-620 > 100 µM | SK-MEL-28 55.3 µM | MDA-N 31.6 µM | MCF7 35.3 µM | PC-3 28.3 µM | RXF 393 17.5 µM
40.2 µM: HCT-15
